# Assay results published in US7122193B1 (priority 1994, dated 2006).
# Tests used:
# Assay type in all cases: cell-based, mouse
# [1] = system: peptide-primed T lymphocytes from BALB/c mice
# [2] = system: peptide-primed T lymphocytes from BALB/c mice; remark: listed apart in the source
# [3] = system: TCR of peptide-primed lymph node T-cells
substance,measurement,setting,value
CH3CO-(D)Thr-(D)Asp-(D)Lys-(D)Tyr-(D)Thr-(D)Ile-(D)Lys-(D)Trp-(D)Val-(D)Ala-(D)Phe-(D)Leu-(D)Lys-NH2,"proliferation of T-lymphocytes of mice immunized with retro-inverso analogue 103–115, in response to the peptide",[1],proliferated in response to the homologous peptide
same,"proliferation of lymph node cells of mice immunized with parent peptide 103–115, stimulated in vitro by the peptide",[1],did not proliferate in vitro
same,"IL-2 production of lymph node cells of mice immunized with parent peptide 103–115, stimulated in vitro by the peptide",[2],No IL-2 production was observed
same,maximal IL-2 secretion measured using CTL-L cells in the presence of Con A,[2],5 570 cpm
same,IL-2 secretion by T-cells from mice immunized against the L-peptide 103–115 in the presence of the peptide,[3],remains unchanged
